The text below walks through data of US20250276983A1, “COMPOUNDS AND METHODS FOR MODULATING HER2” (IAMBIC THERAPEUTICS, INC., priority 2022, published 2025).

For orientation: IC50 means the concentration needed to halve the response being measured.

Like-named read-outs stand apart in the source and are kept apart here. Bounds are passed on as bounds.

What all share (assay type): cell-based
The test system of one experiment is BaF3_HER2YVMA cells. Kind of experiment: Cell growth inhibition assay, BaF3_HER2YVMA. Particulars: BaF3_HER2YVMA cells, 3 days treatment, CellTiterGlo 2.0, read-out: HER2-YVMA IC50 (nM), cell growth inhibition. A general note: In ATP-based viability assays light output follows the ATP content of the culture.
The subject of the next experiment is BaF3_HER2WT cells. Kind of experiment: Cell growth inhibition assay, BaF3_HER2WT. The following applies: 3 days treatment, CellTiterGlo 2.0, read-out: HER2 WT IC50 (nM), cell growth inhibition.
For another experiment, the system named is BaF3_EGFRWT cells. Kind of experiment: Cell growth inhibition assay, BaF3_EGFRWT. The following applies: 80 ng/mL recombinant human EGF, 3 days treatment, CellTiterGlo 2.0, read-out: EGFR WT IC50 (nM), cell growth inhibition.

Regarding `COC1(c2ccn3ncnc(Nc4ccc(Oc5ccn6ncnc6c5)c(C)c4)c23)CCN(C(=O)/C=C/CN(C)C)CC1` [Example 52, (E)-1-(4-(4-((4-([1,2,4]triazolo[1,5-a]pyridin-7-yloxy)-3-methylphenyl)amino)pyrrolo[2,1-f][1,2,4]triazin-5-yl)-4-methoxypiperidin-1-yl)-4-(dimethylamino)but-2-en-1-one], the 50% inhibitory concentration (IC50) with BaF3_HER2YVMA cells (72 h) lay within 500 to 1500 nM; in the experiment with BaF3_HER2WT cells (72 h), 200 to 500 nM; in the experiment with BaF3_EGFRWT cells (72 h), 1500 to 5000 nM.

In the case of `Cc1cc(Nc2ncnn3ccc(C4CCN(C(=O)/C=C/CN5CCOCC5)CC4)c23)ccc1Oc1ccn2ncnc2c1` [Example 56, (E)-1-(4-(4-((4-([1,2,4]triazolo[1,5-a]pyridin-7-yloxy)-3-methylphenyl)amino)pyrrolo[2,1-f][1,2,4]triazin-5-yl)piperidin-1-yl)-4-morpholinobut-2-en-1-one], the values for the half-maximal inhibitory concentration (IC50) with BaF3_HER2YVMA cells (72 h), in the experiment with BaF3_HER2WT cells (72 h) and with BaF3_EGFRWT cells (72 h) were below 200 nM, below 200 nM and 1500 to 5000 nM, respectively.

For the compound `Cc1cc(Nc2ncnn3ccc(N4CCN(C(=O)/C=C/CN(C)C)CC4=O)c23)ccc1Oc1ccn2ncnc2c1` [Example 54, (E)-1-(4-((4-([1,2,4]triazolo[1,5-a]pyridin-7-yloxy)-3-methylphenyl)amino)pyrrolo[2,1-f][1,2,4]triazin-5-yl)-4-(4-(dimethylamino)but-2-enoyl)piperazin-2-one], the IC50 in the experiment with BaF3_HER2YVMA cells (72 h) is 1500 to 5000 nM; in the experiment on BaF3_HER2WT cells (72 h) it was 500 to 1500 nM; in the experiment with BaF3_EGFRWT cells (72 h), 1500 to 5000 nM.

As to `Cc1cc(Nc2ncnn3ccc(C4CN(C(=O)/C=C/C56CCCN5CCC6)C4)c23)ccc1Oc1ccn2ncnc2c1` [Example 159, (E)-1-(3-(4-((4-([1,2,4]triazolo[1,5-a]pyridin-7-yloxy)-3-methylphenyl)amino)pyrrolo[2,1-f][1,2,4]triazin-5-yl)azetidin-1-yl)-3-(tetrahydro-1H-pyrrolizin-7a(5H)-yl)prop-2-en-1-one], the IC50 in the experiment with BaF3_HER2YVMA cells (72 h) is below 200 nM; with BaF3_HER2WT cells (72 h), below 200 nM; with BaF3_EGFRWT cells (72 h), 1500 to 5000 nM.

For the compound `Cc1cc(Nc2ncnn3ccc(N4CC(NC(=O)/C=C/CN(C)C)C4)c23)ccc1Oc1ccn2ncnc2c1` [Example 71, (E)-N-(1-(4-((4-([1,2,4]triazolo[1,5-a]pyridin-7-yloxy)-3-methylphenyl)amino)pyrrolo[2,1-f][1,2,4]triazin-5-yl)azetidin-3-yl)-4-(dimethylamino)but-2-enamide], the IC50 with BaF3_HER2YVMA cells (72 h) was 200 to 500 nM; in the experiment on BaF3_HER2WT cells (72 h), below 200 nM; with BaF3_EGFRWT cells (72 h) it was 1500 to 5000 nM.

Turning to `CO[C@H]1CN(C/C=C/C(=O)N2CCC(c3ccn4ncnc(Nc5ccc(Oc6ccn7ncnc7c6)c(C)c5)c34)CC2)C[C@H]1OC` [Example 169, (E)-1-(4-(4-((4-([1,2,4]triazolo[1,5-a]pyridin-7-yloxy)-3-methylphenyl)amino)pyrrolo[2,1-f][1,2,4]triazin-5-yl)piperidin-1-yl)-4-((3R,4S)-3,4-dimethoxypyrrolidin-1-yl)but-2-en-1-one], the IC50 in the experiment on BaF3_HER2YVMA cells (72 h) is below 200 nM; in the experiment on BaF3_HER2WT cells (72 h), below 200 nM; with BaF3_EGFRWT cells (72 h), 1500 to 5000 nM.

For `C=CC(=O)N(C)C1CCCN(c2ccn3ncnc(Nc4ccc(Oc5ccn6ncnc6c5)c(C)c4)c23)C1` (stereo not drawn) [Example 69, N-(1-(4-((4-([1,2,4]triazolo[1,5-a]pyridin-7-yloxy)-3-methylphenyl)amino)pyrrolo[2,1-f][1,2,4]triazin-5-yl)piperidin-3-yl)-N-methylacrylamide], the IC50 was 200 to 500 nM with BaF3_HER2YVMA cells (72 h), below 200 nM in the experiment on BaF3_HER2WT cells (72 h) and 1500 to 5000 nM in the experiment with BaF3_EGFRWT cells (72 h).

Regarding `Cc1cc(Nc2ncnn3ccc(C4=CCN(C(=O)/C=C/CN(C)C)CC4)c23)ccc1Oc1ccn2ncnc2c1` [Example 53, (E)-1-(4-(4-((4-([1,2,4]triazolo[1,5-a]pyridin-7-yloxy)-3-methylphenyl)amino)pyrrolo[2,1-f][1,2,4]triazin-5-yl)-3,6-dihydropyridin-1(2H)-yl)-4-(dimethylamino)but-2-en-1-one], the IC50 is below 200 nM with BaF3_HER2YVMA cells (72 h), below 200 nM in the experiment with BaF3_HER2WT cells (72 h) and 1500 to 5000 nM with BaF3_EGFRWT cells (72 h).

As for `C=CC(=O)N1C[C@H]2C[C@@H]1C[C@@H]2c1ccn2ncnc(Nc3ccc(Oc4ccn5ncnc5c4)c(C)c3)c12` [Example 141, 1-[(1S,4S,5S)-5-{4-[(3-methyl-4-{[1,2,4]triazolo[1,5-a]pyridin-7-yloxy}phenyl)amino]pyrrolo[2,1-f][1,2,4]triazin-5-yl}-2-azabicyclo[2.2.1]heptan-2-yl]prop-2-en-1-one], the half-inhibitory concentration (IC50) in the experiment with BaF3_HER2YVMA cells (72 h) fell in the range of 500 to 1500 nM; in the experiment with BaF3_HER2WT cells (72 h) it was 200 to 500 nM; with BaF3_EGFRWT cells (72 h), 1500 to 5000 nM.

Regarding `Cc1cc(Nc2ncnn3ccc(C4CN(C(=O)/C=C/CC(C)C)C4)c23)ccc1Oc1ccn2ncnc2c1` [Example 43, (E)-1-(3-(4-((4-([1,2,4]triazolo[1,5-a]pyridin-7-yloxy)-3-methylphenyl)amino)pyrrolo[2,1-f][1,2,4]triazin-5-yl)azetidin-1-yl)-5-methylhex-2-en-1-one], the IC50 in the experiment with BaF3_HER2YVMA cells (72 h) is 200 to 500 nM; with BaF3_HER2WT cells (72 h), below 200 nM; in the experiment with BaF3_EGFRWT cells (72 h), 1500 to 5000 nM.

On to `C=C(CN(C)C)C(=O)N1C2CCC1CC(c1ccn3ncnc(Nc4ccc(Oc5ccn6ncnc6c5)c(C)c4)c13)C2` (single isomer, unassigned) [Examples 126 and 127, second eluting isomer, 1-(3-(4-((4-([1,2,4]triazolo[1,5-a]pyridin-7-yloxy)-3-methylphenyl)amino)pyrrolo[2,1-f][1,2,4]triazin-5-yl)-8-azabicyclo[3.2.1]octan-8-yl)-2-((dimethylamino)methyl)prop-2-en-1-one], for which the results for the IC50 with BaF3_HER2YVMA cells, in the experiment on BaF3_HER2WT cells and with BaF3_EGFRWT cells were 500 to 1500 nM, below 200 nM and 1500 to 5000 nM, respectively.

For `COC1CCN(C/C=C/C(=O)N2CCC(c3ccn4ncnc(Nc5ccc(Oc6ccn7ncnc7c6)c(C)c5)c34)CC2)C1` (stereo not drawn) [Example 118, E-1-(4-(4-((4-([1,2,4]triazolo[1,5-a]-207-midazol-7-yloxy)-3-methylphenyl)amino)pyrrolo[2,1-f][1,2,4]triazin-5-yl)piperidin-1-yl)-4-(3-methoxypyrrolidin-1-yl)but-2-en-1-one], the values for the IC50 in the experiment with BaF3_HER2YVMA cells (72 h), with BaF3_HER2WT cells (72 h) and in the experiment on BaF3_EGFRWT cells (72 h) were below 200 nM, below 200 nM and 1500 to 5000 nM, respectively.

Turning to `Cc1cc(Nc2ncnn3ccc(C4CCN(C(=O)/C=C/CN5CCC6(COC6)C5)CC4)c23)ccc1Oc1ccc2c(c1)ncn2C` [Example 129, (E)-1-(4-(4-((3-methyl-4-((1-methyl-1H-benzo[d]imidazol-5-yl)-oxy)phenyl)amino)-pyrrolo[2,1-f][1,2,4]triazin-5-yl)piperidin-1-yl)-4-(2-oxa-6-azaspiro[3.4]octan-6-yl)but-2-en-1-one], the IC50 with BaF3_HER2YVMA cells (72 h) is below 200 nM; in the experiment on BaF3_HER2WT cells (72 h), below 200 nM; in the experiment with BaF3_EGFRWT cells (72 h), 1500 to 5000 nM.

With `C=CC(=O)NC1CCCN(c2ccn3ncnc(Nc4ccc(Oc5ccn6ncnc6c5)c(C)c4)c23)C1` (stereo not drawn) [Example 76, N-(1-(4-((4-([1,2,4]triazolo[1,5-a]pyridin-7-yloxy)-3-methylphenyl)amino)pyrrolo[2,1-f][1,2,4]triazin-5-yl)piperidin-3-yl)acrylamide], the IC50 in the experiment with BaF3_HER2YVMA cells (72 h) was 500 to 1500 nM; in the experiment on BaF3_HER2WT cells (72 h), below 200 nM; in the experiment with BaF3_EGFRWT cells (72 h), 1500 to 5000 nM.

With `C=C(CN(C)C)C(=O)N1C2CCC1CC(c1ccn3ncnc(Nc4ccc(Oc5ccn6ncnc6c5)c(C)c4)c13)C2` (single isomer, unassigned) [Examples 126 and 127, first eluting isomer, 1-(3-(4-((4-([1,2,4]triazolo[1,5-a]pyridin-7-yloxy)-3-methylphenyl)amino)pyrrolo[2,1-f][1,2,4]triazin-5-yl)-8-azabicyclo[3.2.1]octan-8-yl)-2-((dimethylamino)methyl)prop-2-en-1-one], the IC50 with BaF3_HER2YVMA cells was 200 to 500 nM; with BaF3_HER2WT cells (72 h), below 200 nM; in the experiment with BaF3_EGFRWT cells (72 h), 1500 to 5000 nM.

Take `Cc1cc(Nc2ncnn3ccc(C4CCN(C(=O)/C=C/CN5CCCCC5)CC4)c23)ccc1Oc1ccn2ncnc2c1` [Example 57, (E)-1-(4-(4-((4-([1,2,4]triazolo[1,5-a]pyridin-7-yloxy)-3-methylphenyl)amino)pyrrolo[2,1-f][1,2,4]triazin-5-yl)piperidin-1-yl)-4-(piperidin-1-yl)but-2-en-1-one]: the IC50 in the experiment with BaF3_HER2YVMA cells (72 h) is below 200 nM; with BaF3_HER2WT cells (72 h) it was below 200 nM; with BaF3_EGFRWT cells (72 h), 1500 to 5000 nM.

As to `CO[C@H]1CN(C/C=C/C(=O)N2CCC(c3ccn4ncnc(Nc5ccc(Oc6ccc7c(c6)ncn7C)c(C)c5)c34)CC2)C[C@H]1OC` [Example 167, (E)-4-((3R,4S)-3,4-dimethoxypyrrolidin-1-yl)-1-(4-(4-((3-methyl-4-((1-methyl-1H-benzo[d]imidazol-5-yl)oxy)phenyl)amino)pyrrolo[2,1-f][1,2,4]triazin-5-yl)piperidin-1-yl)but-2-en-1-one], the IC50 with BaF3_HER2YVMA cells (72 h) is below 200 nM; with BaF3_HER2WT cells (72 h), below 200 nM; in the experiment with BaF3_EGFRWT cells (72 h), 1500 to 5000 nM.

For `Cc1cc(Nc2ncnn3ccc(C4CCN(C(=O)/C=C/CN5CC(F)C5)CC4)c23)ccc1Oc1ccn2ncnc2c1` [Example 163], the half-maximal inhibitory concentration (IC50) in the experiment on BaF3_HER2YVMA cells (72 h) is below 200 nM; with BaF3_HER2WT cells (72 h), below 200 nM; in the experiment on BaF3_EGFRWT cells (72 h), 1500 to 5000 nM.

As for `Cc1cc(Nc2ncnn3ccc(C(=O)NCCCN(C)C)c23)ccc1N` [Example 181, 4-((4-amino-3-methylphenyl)amino)-N-(3-(dimethylamino)propyl)pyrrolo[2,1-f][1,2,4]triazine-5-carboxamide], the IC50 in the experiment on BaF3_HER2YVMA cells (72 h) is above 5000 nM; in the experiment on BaF3_HER2WT cells (72 h), 1500 to 5000 nM; with BaF3_EGFRWT cells (72 h), above 5000 nM.
